In patent publication US6071747A, “Immortalized cell lines from human adipose tissue, process for preparing same and applications thereof” (Centre National de la Recherche Scientifique-CNRS, priority 1995, dated 2000):
Where two headings read alike, the source gives them in different places.

Tests used:
[1] = system: β-adrenergic receptors coupled with adenylyl cyclase in PAZ-6 cells; conditions: for Accumulation of cAMP, pmol cAMP/mg protein: agonist 15 min at 37° C.
Procedure: (§1) The following method is used to determine the intracellular levels of cAMP:
(§2) The incubation buffer is removed and the cells are lyzed in 1 M NaOH for at least 20 min at 37° C. The lyzate is neutralized with 1 M acetic acid and centrifuged in a microcentrifuge at maximum speed for 5 min.
(§3) The supernatant is used to determine the cAMP (cAMP-^3 H kit, Amersham).

[2] = system: differentiated PAZ-6 human adipocytes; assay: Lipolysis assay (glycerol release) on the PAZ-6 line; type: cell-based; conditions: differentiated PAZ-6 adipocytes; 2 hours at 37° C.; forskolin 10^-4 M, other agonists 10^-5 M; catecholamines with or without phentolamine 20 μg/ml
Procedure: The lipolysis test consists in measuring the amount of glycerol generated by the mature adipocytes treated with lipolytic ligands.
Monolayers of (differentiated) mature adipocytes in culture plates (6 wells) are washed and preincubated overnight in DMEM/Ham's F12 (1:1, v/v) comprising 1% of fatty acid-free BSA. The cells are then incubated in a Krebs-Ringer phosphate buffer (pH 7.4) comprising 2% of fatty acid-free BSA, 4.5 g/l of glucose, 50 μg/ml of Na2 S2 O5 and the β-adrenergic ligands, in a volume of 500 μl, for 2 hours at 37° C.
The glycerol level is measured on 100 μl of incubation medium by following the reduction of NAD to NADH at 340 nm in the presence of 10 μg/ml of glycerol dehydrogenase (derived from Enterobacter aerogenes, Boehringer Mannheim) in the following reaction buffer: K2 CO3 /NaHCO3 125 mM pH 10, NAD 3.5 mM and (NH4)2 SO4 330 mM.

[3] = system: PAZ-6 preadipocytes; assay: Differentiation of PAZ-6 preadipocytes into mature adipocytes; type: cell-based, human; conditions: in the presence of insulin and dexamethasone; 1 μM pioglitazone
Procedure: The cells are inoculated at a density of 10,000 cells/cm^2 and cultivated for 3 days in a medium containing 6% of foetal calf serum in order to obtain confluence; an ITT medium (DMEM/HAM F12 medium supplemented with biotin, pantothenate, Hepes, T3, penicillin and streptomycin, as defined above) is then added to said cells, said medium also containing 0.1 μM dexamethasone, 850 nM insulin, 1 μM pioglitazone and 0.25 mM IBMX (3-isobutyl-1-methylxanthine) for 4 days.

[4] = target: β-adrenergic receptors coupled with adenylyl cyclase in PAZ-6 cells (Homo sapiens, UniProt P13945); conditions: differentiated PAZ-6; 15 min
Procedure: as §1, §2, §3

[5] = system: mRNA coding for the Ob protein; conditions: rat adipocytes; cited from earlier work
[6] = system: Ob mice; conditions: Ob mice with mutant gene; injected; cited from earlier work
[7] = system: β-adrenergic receptors (I-CYP binding sites) of PAZ-6 cells
Procedure: * determination of the binding sites for the β antagonist ligand iodocyanopindolol (I-CYP) in the PAZ-6 cell line
The cells are washed with PBS, incubated for 5 minutes at 37° C. with a solution of trypsin/2% EDTA and resuspended in DMEM supplemented with 10% (v/v) of horse serum.
After centrifugation at 450×g for 5 minutes at 4° C., the cellular residue is washed twice with PBS and the cells are then resuspended in PBS.
The actual binding assay itself is carried out for 90 min at 25° C. in a final volume of […] of PBS supplemented with 50 mg/ml of bovine serum albumin and 1 mM desipramine.
The reaction is stopped by rapid filtration through a Whatman GF/C glass fibre filter previously immersed for 30 min in a solution of PBS containing 0.3% of polyethyleneimine (to reduce the non-specific bindings).
The protein concentrations are determined by the method of M. Bradford (Anal. Biochem., 1976, 72, 248-256).
Bovine serum albumin is used as the standard and the cellular suspensions are homogenized with a Polytron homogenizer for a maximum of 5 seconds before the reaction.

Chain of β-adrenergic receptors coupled with adenylyl cyclase in PAZ-6 cells (Homo sapiens, UniProt P13945) (P13945 whole entry): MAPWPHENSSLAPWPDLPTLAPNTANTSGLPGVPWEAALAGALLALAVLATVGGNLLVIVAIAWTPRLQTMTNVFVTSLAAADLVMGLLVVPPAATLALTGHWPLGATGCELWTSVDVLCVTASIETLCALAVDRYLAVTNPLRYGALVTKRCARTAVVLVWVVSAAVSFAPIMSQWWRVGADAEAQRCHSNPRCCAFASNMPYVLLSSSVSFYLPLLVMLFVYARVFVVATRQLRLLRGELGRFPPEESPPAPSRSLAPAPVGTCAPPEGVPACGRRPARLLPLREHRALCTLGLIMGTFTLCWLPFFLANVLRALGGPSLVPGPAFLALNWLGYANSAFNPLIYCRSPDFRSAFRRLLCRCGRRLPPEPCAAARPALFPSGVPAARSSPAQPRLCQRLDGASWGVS

## CC(C)NCC(O)c1ccc(O)c(O)c1 (stereo not shown) [isoproterenol, isoprenaline]
[1]; PAZ-6 differentiated
  Accumulation of cAMP, pmol cAMP/mg protein: 2083 pmol cAMP/mg protein
[1]; PAZ-6 not differentiated
  Accumulation of cAMP, pmol cAMP/mg protein: 4344 pmol cAMP/mg protein

## C=C[C@@]1(C)CC(=O)[C@]2(O)[C@@]3(C)[C@@H](O)CCC(C)(C)[C@@H]3[C@H](O)[C@H](OC(C)=O)[C@@]2(C)O1 [forskolin]
[2]
  lipolysis (glycerol generated relative to basal level, FIG. 4): lipolysis induced

## NC[C@H](O)c1ccc(O)c(O)c1 [norepinephrine]
[2]
  lipolysis (glycerol generated relative to basal level, FIG. 4): lipolysis induced

## CCc1ccc(CCOc2ccc(CC3SC(=O)NC3=O)cc2)nc1 (stereo not shown) [pioglitazone]
[3]
  differentiation into mature adipocytes: significantly increased

## CC(C)(C)NCC(O)COc1cccc2[nH]c(=O)[nH]c12 (stereo not shown) [CGP 12177A]
[1]; PAZ-6 differentiated
  Accumulation of cAMP, pmol cAMP/mg protein: 323 ± 129 pmol cAMP/mg protein
[1]; PAZ-6 not differentiated
  Accumulation of cAMP, pmol cAMP/mg protein: 254 ± 167 pmol cAMP/mg protein
[1]; undifferentiated PAZ-6
  stimulation of the adenylyl cyclase: does not cause any significant stimulation
[4]
  stimulation (cAMP) compared with isoproterenol activating all β-AR sites: 20%
[2]
  lipolysis (glycerol generated relative to basal level, FIG. 4): Lipolysis is also seen to be induced

## C[C@H](Cc1ccc2c(c1)OC(C(=O)O)(C(=O)O)O2)NC[C@H](O)c1cccc(Cl)c1 [CL 316,43]
[5]
  levels of mRNA coding for the Ob protein: reduce substantially
[2]
  lipolysis (glycerol generated relative to basal level, FIG. 4): Lipolysis is also seen to be induced

## O=C(O)COc1ccc(OCCNCC(O)COc2ccccc2)cc1 (stereo not shown) [ICI 201651]
[2]
  lipolysis (glycerol generated relative to basal level, FIG. 4): Lipolysis is also seen to be induced

## leptin: leptin (Ob protein), product of the Ob gene
[6]
  appetite and obesity: reduces appetite and hence obesity

## Cc1ccc(OCC(O)C(C)NC(C)C)c2c1CCC2 (stereo not shown) [ICI 118551]
[7]
  reduction of the number of I-CYP binding sites: 34%

## CNC[C@H](O)c1ccc(O)c(O)c1 [epinephrine]
[2]
  lipolysis (glycerol generated relative to basal level, FIG. 4): lipolysis induced
